Experimental data as given in patent publication US9181273B2, “Morpholine-spirocyclic piperidine amides as modulators of ion channels” (Vertex Pharmaceuticals Incorporated, priority 2011, dated 2015).

Target: human NaV subtype, like NaV 1.7 (Homo sapiens, UniProt Q15858)
Test: E-VIPR optical membrane potential assay with electrical stimulation
Format: cell-based
Conditions: not given

Sequence of human NaV subtype, like NaV 1.7 (Q15858 whole entry): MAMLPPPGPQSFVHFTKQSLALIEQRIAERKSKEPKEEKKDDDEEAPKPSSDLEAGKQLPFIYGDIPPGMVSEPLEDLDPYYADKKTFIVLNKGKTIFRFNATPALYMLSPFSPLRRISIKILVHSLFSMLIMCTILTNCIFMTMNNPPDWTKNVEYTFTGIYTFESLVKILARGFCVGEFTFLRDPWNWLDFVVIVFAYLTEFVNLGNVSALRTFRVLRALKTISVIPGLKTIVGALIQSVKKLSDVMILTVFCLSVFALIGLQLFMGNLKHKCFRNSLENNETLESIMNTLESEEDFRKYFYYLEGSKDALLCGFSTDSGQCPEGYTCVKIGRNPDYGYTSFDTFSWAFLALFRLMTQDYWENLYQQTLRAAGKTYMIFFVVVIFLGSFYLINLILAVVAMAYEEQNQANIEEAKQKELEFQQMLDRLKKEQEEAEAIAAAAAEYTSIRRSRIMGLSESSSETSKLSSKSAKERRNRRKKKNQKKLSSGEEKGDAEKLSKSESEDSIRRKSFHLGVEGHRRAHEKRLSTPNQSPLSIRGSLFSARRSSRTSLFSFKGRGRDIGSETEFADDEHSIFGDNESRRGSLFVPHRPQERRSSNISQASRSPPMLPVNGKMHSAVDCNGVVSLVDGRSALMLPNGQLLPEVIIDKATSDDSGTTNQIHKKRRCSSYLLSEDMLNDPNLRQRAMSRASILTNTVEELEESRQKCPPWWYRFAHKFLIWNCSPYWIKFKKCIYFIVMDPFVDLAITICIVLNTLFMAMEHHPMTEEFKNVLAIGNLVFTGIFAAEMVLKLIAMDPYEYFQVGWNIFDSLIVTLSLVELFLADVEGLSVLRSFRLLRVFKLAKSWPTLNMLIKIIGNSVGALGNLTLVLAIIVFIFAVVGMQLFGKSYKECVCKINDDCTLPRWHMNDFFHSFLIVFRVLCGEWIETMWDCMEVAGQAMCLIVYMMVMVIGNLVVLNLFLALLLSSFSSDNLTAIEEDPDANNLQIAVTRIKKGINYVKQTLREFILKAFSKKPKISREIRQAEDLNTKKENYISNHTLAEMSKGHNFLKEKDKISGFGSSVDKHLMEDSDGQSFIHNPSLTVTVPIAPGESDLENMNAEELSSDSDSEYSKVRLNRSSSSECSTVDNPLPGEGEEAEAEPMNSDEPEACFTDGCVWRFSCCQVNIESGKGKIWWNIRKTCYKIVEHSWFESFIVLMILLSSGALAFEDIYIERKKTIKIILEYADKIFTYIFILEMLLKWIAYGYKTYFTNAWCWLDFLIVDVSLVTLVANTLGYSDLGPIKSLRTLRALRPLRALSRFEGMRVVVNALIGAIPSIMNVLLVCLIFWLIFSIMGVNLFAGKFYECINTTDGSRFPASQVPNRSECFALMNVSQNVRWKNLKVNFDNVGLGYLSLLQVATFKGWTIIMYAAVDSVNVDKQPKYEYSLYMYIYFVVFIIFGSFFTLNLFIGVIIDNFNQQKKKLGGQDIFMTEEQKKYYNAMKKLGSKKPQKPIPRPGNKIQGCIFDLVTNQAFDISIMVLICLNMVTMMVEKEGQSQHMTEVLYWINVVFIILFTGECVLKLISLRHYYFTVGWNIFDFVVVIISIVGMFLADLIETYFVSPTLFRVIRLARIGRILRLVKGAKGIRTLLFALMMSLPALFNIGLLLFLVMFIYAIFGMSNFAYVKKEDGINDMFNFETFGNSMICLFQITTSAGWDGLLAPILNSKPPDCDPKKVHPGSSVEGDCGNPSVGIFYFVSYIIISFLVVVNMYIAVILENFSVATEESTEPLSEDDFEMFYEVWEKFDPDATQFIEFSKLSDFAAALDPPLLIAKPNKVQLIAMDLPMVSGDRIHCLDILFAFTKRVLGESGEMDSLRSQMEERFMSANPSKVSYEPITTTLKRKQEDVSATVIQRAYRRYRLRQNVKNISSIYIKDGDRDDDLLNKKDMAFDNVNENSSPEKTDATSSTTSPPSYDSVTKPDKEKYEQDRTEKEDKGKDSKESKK

Row | IC50 | Compound
1 | < 2 µM | Cc1cc(C(=O)N2CCC3(CC2)CN(CC(F)(F)F)CC(c2cc[nH]n2)O3)ccc1OC(C)C (stereo not drawn) [Compound 211]

Same assay, conditions: active against one or more sodium channels; assay and NaV subtype not specified for Table 3; read-out: IC50 Binned Activity Data

Row | Compound | IC50
2 | CCC1CN(Cc2ccccc2)CC2(CCN(C(=O)c3ccc(OC(C)C)c(C)c3)CC2)O1 (stereo not drawn) [Compound 142] | > 5 µM
3 | COCC1CN(c2cccc(C)n2)CC2(CCN(C(=O)c3ccc(OC(C)C)c(C)c3)CC2)O1 (stereo not drawn) [Compound 16] | < 2 µM
4 | COCC1CN(c2ncccn2)CC2(CCN(C(=O)c3ccc(C(C)(C)O)c(C)c3)CC2)O1 (stereo not drawn) [Compound 267] | 2 to 5 µM
5 | Cc1cc(C(=O)N2CCC3(CC2)CN(CC(C)C)CC(c2ccccc2)O3)ccc1OC(C)C (stereo not drawn) [Compound 29] | < 2 µM
6 | Cc1cn[nH]c1C1CN(CC(F)F)CC2(CCN(C(=O)c3ccc(OC(C)C)c(F)c3)CC2)O1 (stereo not drawn) [Compound 298] | < 2 µM
7 | CCS(=O)(=O)c1ccc(C(=O)N2CCC3(CC2)CN(CC(F)(F)F)CC(c2ccccc2)O3)cc1C (stereo not drawn) [Compound 62] | < 2 µM
8 | Cc1cc(C(=O)N2CCC3(CC2)CN(CC(F)(F)F)CC(c2ccccc2)O3)ccc1S(=O)(=O)C(C)C (stereo not drawn) [Compound 200] | < 2 µM
9 | Cc1cccc(C2CN(CC(F)F)CC3(CCN(C(=O)c4ccc(S(=O)(=O)C(C)C)c(C)c4)CC3)O2)n1 (stereo not drawn) [Compound 265] | 2 to 5 µM
10 | COCC1CN(C2CCSCC2)CC2(CCN(C(=O)c3ccc(OC(C)C)c(C)c3)CC2)O1 (stereo not drawn) [Compound 131] | < 2 µM
11 | CCOc1ccc(C(=O)N2CCC3(CC2)CN(CC)CC(c2ccccc2)O3)cc1CO (stereo not drawn) [Compound 145] | > 5 µM
12 | COCC1CN(c2ncccn2)CC2(CCN(C(=O)c3ccc(OC(C)C)c(C)c3)CC2)O1 (stereo not drawn) [Compound 120] | < 2 µM
13 | Cc1cc(C(=O)N2CCC3(CC2)CN(CC(F)F)CC(c2ccccc2)O3)ccc1C(C)(C)O (stereo not drawn) [Compound 168] | < 2 µM
14 | CC(C)Oc1ccc(C(=O)N2CCC3(CC2)CN(CC(F)(F)F)CC(c2ccccc2)O3)cc1F (stereo not drawn) [Compound 94] | < 2 µM
15 | Cc1cc(C(=O)N2CCC3(CC2)CN(CC(F)F)CC(c2ccc(F)cc2)O3)ccc1OCCCO (stereo not drawn) [Compound 81] | > 5 µM
16 | Cc1nc(C(=O)N2CCC3(CC2)CN(CC(F)F)CC(c2ccccc2)O3)ccc1OC(C)C (stereo not drawn) [Compound 246] | < 2 µM
17 | CC#CCN1CC(CC)OC2(CCN(C(=O)c3ccc(C(C)(C)C)c(OC)c3)CC2)C1 (stereo not drawn) [Compound 129] | < 2 µM
18 | COCC1CN(Cc2cc(C)on2)CC2(CCN(C(=O)c3ccc(OC(C)C)c(C)c3)CC2)O1 (stereo not drawn) [Compound 132] | 2 to 5 µM
19 | COCC1CN(c2ccc(C(F)(F)F)cc2)CC2(CCN(C(=O)c3ccc(OC(C)C)c(C)c3)CC2)O1 (stereo not drawn) [Compound 124] | < 2 µM
20 | COCC1CN(CC2CCC2)CC2(CCN(C(=O)c3ccc(OC(C)C)c(C)c3)CC2)O1 (stereo not drawn) [Compound 47] | < 2 µM
21 | COc1cc(C(=O)N2CCC3(CC2)CN(CC#N)CC(c2ccccc2)O3)ccc1C(C)(C)O (stereo not drawn) [Compound 115] | 2 to 5 µM
22 | COCC1CN(C)CC2(CCN(C(=O)c3ccc(OC(C)C)c(C)c3)CC2)O1 (stereo not drawn) [Compound 32] | > 5 µM
23 | COCC1CN(C(C)(C)C)CC2(CCN(C(=O)c3ccc(OC(C)C)c(C)c3)CC2)O1 (stereo not drawn) [Compound 160] | 2 to 5 µM
24 | CC(C)Oc1ccc(C(=O)N2CCC3(CC2)CN(CC(F)(F)F)CC(c2ccccc2)O3)cc1CO (stereo not drawn) [Compound 194] | < 2 µM
25 | Cc1cc(C(=O)N2CCC3(CC2)CN(CC(F)(F)F)CC(c2ccccc2)O3)ccc1S(C)(=O)=O (stereo not drawn) [Compound 189] | < 2 µM
26 | CCCOCCN1CC(COC)OC2(CCN(C(=O)c3ccc(OC(C)C)c(C)c3)CC2)C1 (stereo not drawn) [Compound 107] | < 2 µM

Row | Compound | IC50
27 | CC(C)Oc1ccc(C(=O)N2CCC3(CC2)CN(CC(F)F)CC(c2ccccn2)O3)cc1F (stereo not drawn) [Compound 221] | < 2 µM
28 | CCn1ccc(C2CN(CC(F)F)CC3(CCN(C(=O)c4ccc(OC(C)C)c(C)c4)CC3)O2)n1 (stereo not drawn) [Compound 229] | 2 to 5 µM
29 | Cc1cc(C(=O)N2CCC3(CC2)CN(CC(F)F)CC(c2ncc(C(C)C)o2)O3)ccc1OC(C)C (stereo not drawn) [Compound 88] | < 2 µM
30 | CCN1CC(c2ccccc2)OC2(CCN(C(=O)c3ccc(C(C)(C)O)cc3)CC2)C1 (stereo not drawn) [Compound 158] | > 5 µM
31 | COCC1CN(Cc2nccs2)CC2(CCN(C(=O)c3ccc(OC(C)C)c(C)c3)CC2)O1 (stereo not drawn) [Compound 252] | 2 to 5 µM
32 | COCC1CN(CC2CCCCC2)CC2(CCN(C(=O)c3ccc(OC(C)C)c(C)c3)CC2)O1 (stereo not drawn) [Compound 206] | < 2 µM
33 | COCC1CN(CCSC)CC2(CCN(C(=O)c3ccc(OC(C)C)c(C)c3)CC2)O1 (stereo not drawn) [Compound 184] | < 2 µM
34 | Cc1nc(C(=O)N2CCC3(CC2)CN(CC(F)(F)F)CC(c2ccccc2)O3)ccc1C#N (stereo not drawn) [Compound 106] | > 5 µM
35 | CC(C)Oc1ccc(C(=O)N2CCC3(CC2)CN(CC(F)F)CC(c2ccccc2)O3)cc1Cl (stereo not drawn) [Compound 86] | < 2 µM
36 | CCC1CN(c2ccccn2)CC2(CCN(C(=O)c3ccc(C4(O)CCCC4)c(C)c3)CC2)O1 (stereo not drawn) [Compound 103] | < 2 µM
37 | Cc1cc(C(=O)N2CCC3(CC2)CN(CC(F)F)CC(c2cc[nH]n2)O3)ccc1OC(C)C (stereo not drawn) [Compound 21] | < 2 µM
38 | Cc1cc(C(=O)N2CCC3(CC2)CN(CC(F)(F)F)CC(c2ccccc2)O3)ccc1OC(C)C (stereo not drawn) [Compound 301] | < 2 µM
39 | COCC1CN(c2cc(OC)ccn2)CC2(CCN(C(=O)c3ccc(OC(C)C)c(C)c3)CC2)O1 (stereo not drawn) [Compound 126] | < 2 µM
40 | CC(C)Oc1ccc(C(=O)N2CCC3(CC2)CN(CC(F)F)CC(c2ncc(C(C)C)o2)O3)cc1F (stereo not drawn) [Compound 159] | > 5 µM
41 | COCC1CN(CC(C)C)CC2(CCN(C(=O)c3ccc(OC(C)C)c(C)c3)CC2)O1 (stereo not drawn) [Compound 111] | < 2 µM
42 | CC(C)Oc1ccc(C(=O)N2CCC3(CC2)CN(CC(F)(F)F)CC(c2cc[nH]n2)O3)cc1Cl (stereo not drawn) [Compound 110] | < 2 µM
43 | Cc1noc(C2CN(CC(F)(F)F)CC3(CCN(C(=O)c4ccc(OC(C)C)c(C)c4)CC3)O2)n1 (stereo not drawn) [Compound 149] | 2 to 5 µM
44 | Cc1cc(C(=O)N2CCC3(CC2)CN(CCO)CC(c2ccccc2)O3)ccc1OC(C)C (stereo not drawn) [Compound 25] | 2 to 5 µM
45 | COc1cc(C(=O)N2CCC3(CC2)CN(CC(F)(F)F)CC(c2ccccc2)O3)cc(F)c1OC(C)C (stereo not drawn) [Compound 234] | < 2 µM
46 | COCCOc1ccc(C(=O)N2CCC3(CC2)CN(CC(F)(F)F)CC(c2ccccc2)O3)cc1OC (stereo not drawn) [Compound 143] | < 2 µM
47 | COCC1CN(c2ccc(OC)cc2)CC2(CCN(C(=O)c3ccc(OC(C)C)c(C)c3)CC2)O1 (stereo not drawn) [Compound 183] | < 2 µM
48 | Cc1nc(C(=O)N2CCC3(CC2)CN(CC#N)CC(c2ccccc2)O3)ccc1OC(C)C (stereo not drawn) [Compound 212] | < 2 µM
49 | O=C(c1ccc(S(=O)(=O)NC2CC2)cc1)N1CCC2(CC1)CN(CC(F)(F)F)CC(c1ccccc1)O2 (stereo not drawn) [Compound 99] | < 2 µM
50 | Cc1cc(C(=O)N2CCC3(CC2)CN(CC(F)(F)F)CC(c2ccccc2)O3)ccc1C1COC1 (stereo not drawn) [Compound 251] | < 2 µM
51 | CCC1CN(CC(=O)C(C)(C)C)CC2(CCN(C(=O)c3ccc(OC(C)C)c(C)c3)CC2)O1 (stereo not drawn) [Compound 262] | < 2 µM

Row | Compound | IC50
52 | Cc1cc(C(=O)N2CCC3(CC2)CN(CC(F)(F)F)CC(c2ccccc2)O3)ccc1OCC(C)(C)O (stereo not drawn) [Compound 138] | < 2 µM
53 | Cc1cc(C(=O)N2CCC3(CC2)CN(CC(F)(F)F)CC(CCO)O3)ccc1OC(C)C (stereo not drawn) [Compound 146] | 2 to 5 µM
54 | Cc1cc(C(=O)N2CCC3(CC2)CN(CC(F)F)CC(c2ccn(C)n2)O3)ccc1OC(C)C (stereo not drawn) [Compound 306] | < 2 µM
55 | CC(C)Oc1ccc(C(=O)N2CCC3(CC2)CN(CC(F)(F)F)CC(c2ccccc2)O3)nc1 (stereo not drawn) [Compound 177] | < 2 µM
56 | CC(C)Oc1ccc(C(=O)N2CCC3(CC2)CN(CC(F)(F)F)CC(c2cc[nH]n2)O3)cc1F (stereo not drawn) [Compound 38] | 2 to 5 µM
57 | COc1cc(C(=O)N2CCC3(CC2)CN(CC(F)(F)F)CC(c2ccccc2)O3)ccc1S(C)(=O)=O (stereo not drawn) [Compound 172] | > 5 µM
58 | COCC1CN(CC(F)(F)F)CC2(CCN(C(=O)c3ccc(OC(C)C)c(C)c3)CC2)O1 (stereo not drawn) [Compound 260] | < 2 µM
59 | CCC1CN(c2ccccn2)CC2(CCN(C(=O)c3ccc(C(C)(C)O)c(F)c3)CC2)O1 (stereo not drawn) [Compound 41] | < 2 µM
60 | Cc1nc(C(=O)N2CCC3(CC2)CN(CC(F)F)CC(c2ccccc2)O3)ccc1C#N (stereo not drawn) [Compound 157] | > 5 µM
61 | Cc1cccc(C2CN(CC(F)F)CC3(CCN(C(=O)c4ccc(OC(C)C)c(F)c4)CC3)O2)n1 (stereo not drawn) [Compound 195] | < 2 µM
62 | CC#CCN1CC(CF)OC2(CCN(C(=O)c3ccc(OC(C)C)c(C)c3)CC2)C1 (stereo not drawn) [Compound 139] | > 5 µM
63 | COCC1CN(CC2CC2)CC2(CCN(C(=O)c3ccc(OC(C)C)c(C)c3)CC2)O1 (stereo not drawn) [Compound 287] | < 2 µM
64 | COCC1CN(c2ncccn2)CC2(CCN(C(=O)c3ccc(S(=O)(=O)C(F)F)cc3)CC2)O1 (stereo not drawn) [Compound 8] | 2 to 5 µM
65 | CCN(CC)C(=O)c1ccc(C(=O)N2CCC3(CC2)CN(CC(F)(F)F)CC(c2ccccc2)O3)cc1F (stereo not drawn) [Compound 293] | < 2 µM
66 | Cc1cc(C(=O)N2CCC3(CC2)CN(CC(F)(F)F)CC(c2ccccc2)O3)ccc1N1CCOCC1 (stereo not drawn) [Compound 78] | < 2 µM
67 | COCCCN1CC(COC)OC2(CCN(C(=O)c3ccc(OC(C)C)c(C)c3)CC2)C1 (stereo not drawn) [Compound 175] | < 2 µM
68 | O=C(c1ccc(S(=O)(=O)C2CCOC2)cc1)N1CCC2(CC1)CN(CC(F)F)CC(c1ccc(F)cc1)O2 (stereo not drawn) [Compound 96] | > 5 µM
69 | Cc1cc(C(=O)N2CCC3(CC2)CN(CC(F)(F)F)CC(c2ccccc2)O3)ccc1OCCCO (stereo not drawn) [Compound 117] | < 2 µM
70 | O=C(c1ccc(C(O)C2CC2)cc1)N1CCC2(CC1)CN(CC(F)(F)F)CC(c1ccccc1)O2 (stereo not drawn) [Compound 59] | < 2 µM
71 | Cc1cc(C(=O)N2CCC3(CC2)CN(CC(F)F)CC(c2[nH]ncc2C)O3)ccc1OC(C)C (stereo not drawn) [Compound 150] | < 2 µM
72 | COCC1CN(c2ncccn2)CC2(CCN(C(=O)c3ccc(CC(C)(C)O)cc3)CC2)O1 (stereo not drawn) [Compound 240] | > 5 µM
73 | COCC1CN(c2ncccn2)CC2(CCN(C(=O)c3ccc(C(C)(C)O)c(F)c3)CC2)O1 (stereo not drawn) [Compound 53] | 2 to 5 µM
74 | O=C(c1cc(Cl)cc(Cl)c1)N1CCC2(CC1)CN(CC(F)(F)F)CC(c1ccccc1)O2 (stereo not drawn) [Compound 118] | > 5 µM
75 | CCC1CN(c2ncccn2)CC2(CCN(C(=O)c3ccc(C(O)(CC)CC)c(C)c3)CC2)O1 (stereo not drawn) [Compound 1] | 2 to 5 µM
